The source of these data is ChEMBL document CHEMBL4673274, “Cytotoxic components from the leaves of Erythrophleum fordii induce human acute leukemia cell apoptosis through caspase 3 activation and PARP cleavage” (Bioorg Med Chem Lett, 2021).

Assay type in all cases: functional, cell-based
In test [1] the test system is KG-1. The experiment in a line: Induction of apoptosis in human KG-1 cells assessed as caspase 3 activation incubated for 48 hrs by Western blot analysis. Conditions: dose 10-30 µM. On the technique in general: A western blot detects proteins with antibodies after separation by electrophoresis.
In test [2] the test system is HL-60. In words: Induction of apoptosis in human HL-60 cells assessed as increase in Bax expression at 10 to 30 uM incubated for 48 hrs by Western blot analysis. To be noted: dose 10-30 µM.
In test [3] the test system is KG-1. The experiment in a line: Induction of apoptosis in human KG-1 cells assessed as caspase 9 activation incubated for 48 hrs by Western blot analysis. Conditions: dose 10-30 µM.
Test [4] concerns HL-60. The experiment in a line: Induction of apoptosis in human HL-60 cells assessed as caspase 3 activation incubated for 48 hrs by Western blot analysis. To be noted: dose 10-30 µM.
Test [5] deals with HL-60. The experiment in a line: Induction of apoptosis in human HL-60 cells assessed as caspase 9 activation incubated for 48 hrs by Western blot analysis. To be noted: dose 10-30 µM.
Test [6] relates to KG-1. The experiment in a line: Induction of apoptosis in human KG-1 cells assessed as increase in PARP cleavage incubated for 48 hrs by Western blot analysis. To be noted: dose 10-30 µM.
In test [7] the test system is HL-60. In words: Induction of apoptosis in human HL-60 cells assessed as increase in PARP cleavage incubated for 48 hrs by Western blot analysis. To be noted: dose 10-30 µM.
Test [8] deals with KG-1. The experiment in a line: Cytotoxicity against human KG-1 cells assessed as reduction in cell viability incubated for 48 hrs by CCK-8 assay. To be noted: KG-1, 48 h.
Test [9] relates to HL-60. The experiment in a line: Cytotoxicity against human HL-60 cells assessed as reduction in cell viability incubated for 48 hrs by CCK-8 assay. Conditions: HL-60, 48 h.
The test system of test [10] is HL-60. In words: Induction of apoptosis in human HL-60 cells assessed as decrease in Bcl2 expression incubated for 48 hrs by Western blot analysis. Conditions: dose 10-30 µM.
The test system of test [11] is HL-60. The experiment in a line: Induction of apoptosis in human HL-60 cells assessed as increase in Cyt-c expression at 10 to 30 uM incubated for 48 hrs by Western blot analysis. Conditions: dose 10-30 µM.

Active and inactive are the calls of the source. The rule behind the calls is not given here.

For `COC(=O)[C@]1(C)[C@@H]2C(=O)[C@H](OC(C)=O)[C@H]3[C@@H](C)/C(=C/C(=O)O)CC[C@@H]3[C@@]2(C)CC[C@@H]1O`, the Activity result in test [1], in [3], in test [4], in [5], in [6] and in test [7] was “Dose-dependent effect” in each case. Besides, the Activity entry in test [10] was “Dose-dependent effect”. Besides, the outcome in test [2] and in test [11] was Active. Also, the IC50 was found to be 18.6 µM in test [8] and 15.2 µM in [9].
As to `CC[C@@]1(O)C(=O)OCc2c1cc1n(c2=O)Cc2cc3ccccc3nc2-1` [CAMPTOTHECIN], the IC50 in test [8] turned out to be 1.6 µM; in test [9] it was 1.7 µM.
Take `CCCCCC` [HEXANE]: the 50% inhibitory concentration (IC50) in test [9] is over 300 µg/mL.
For the molecule `COC(=O)[C@]1(C)[C@@H]2C(=O)[C@H](O)[C@H]3[C@@H](C)/C(=C/C(=O)O)CC[C@@H]3[C@@]2(C)CC[C@@H]1O`, the IC50 in [8] stood at 35.7 µM; in test [9], 24.3 µM.
Take `CCOC(C)=O` [ETHYL ACETATE]: the IC50 in test [8] is over 300 µg/mL; in test [9] it was 216 µg/mL.
In the case of `COC(=O)[C@]1(C)[C@@H]2[C@@H](O)C(=O)[C@H]3[C@@H](C)/C(=C/C(=O)O)CC[C@@H]3[C@@]2(C)CC[C@@H]1O`, the IC50 in [8] was over 50 µM; in test [9], 28.7 µM.
Take `COC(=O)CC1=CC[C@H]2[C@@H](C(=O)[C@H](O)[C@@H]3[C@]2(C)CCC[C@]3(C)C(=O)OC)[C@H]1C`: the IC50 was 42.2 µM in [8] and 28.5 µM in test [9].
As for `COC(=O)/C=C1\CC[C@H]2[C@@H](C(=O)[C@H](O)[C@@H]3[C@]2(C)CC[C@H](O)[C@]3(C)C(=O)OC)[C@H]1C`, the IC50 in test [8] is over 50 µM; in [9], 25.7 µM.
In the case of `ClCCl` [METHYLENE CHLORIDE], the IC50 worked out at 149 µg/mL in test [8] and 116 µg/mL in [9].

As a reminder, the IC50 is the concentration that inhibits the measured activity by half.
